Reference: patent publication US9562035B2, “Benzamide derivative useful as FASN inhibitors for the treatment of cancer” (Janssen Pharmaceutica NV, priority 2013, dated 2017)

Experiments:
[1] = target: T1, hFASN enzyme (full length) (Homo sapiens, UniProt P49327); test: Fatty Acid Synthase (FASN) Inhibition Scintillation Proximity Assay; assay type: biochemical; settings: for IC50: mean where tested more than once, ~ = standard error of pIC50 larger than 0.5; for inhibition at 10 µM: read-out: FASN % Effect @1E−05M
T1 construct: 10 μL hFASN enzyme (full length, 300 ng, purified in house); made in house
Summary of the method: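 Purified full-length human FASN (300 ng) incubated 60 min at room temperature with NADPH, [3H]-acetyl-CoA and malonyl-CoA in 100 mM KH2PO4 pH 7.5, 1 mM DTT; compound at 30 μM to 0.01 μM. [3H]-palmitate captured by SPA imaging beads; IC50 from 4-parameter fit, reported as pIC50.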

A2780 ovarian cells [2] = test: A2780 Ovarian Cell Proliferation Assay in Lipid Reduced Medium, without Palmitate; assay type: cell-based; settings: Homo sapiens, A2780; lipid reduced medium, without palmitate, 96 h, MTT; read-out: Proliferation A2780 w/o Palmitate pIC50 (converted)
Summary of the method: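 A2780 cells were seeded in 10% FCS medium and switched next day to 10% lipid-reduced serum without palmitate. Compounds at 0.01–30 μM were added with 0.2% DMSO, 0.2% fatty-acid-free BSA and 0.25% ethanol final. After 96 h, MTT absorbance at 544 nm was normalized to plate controls, and IC50/pIC50 came from a 4-parameter logistic fit.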

[3] = target: T2, FASN Keto-reductase Domain (Homo sapiens, UniProt P49327); test: Fatty Acid Synthase Keto-Reductase Domain (FASN KR) Inhibition; assay type: biochemical; settings: mean where tested more than once; read-out: FASN K-R Domain pIC50 (converted)
T2 construct: 10 μL hFASN enzyme (full length, 300 ng, purified in house) and 360 μM NADPH; made in house
Summary of the method: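 Full-length human FASN (300 ng) in 100 mM KH2PO4 pH 7.5 with 360 μM NADPH and 180 mM ethyl acetoacetate (stock); A340 decrease read over 20 min at room temperature.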

A2780 ovarian cells [4] = test: A2780 Ovarian Cell Proliferation Assay in Lipid Reduced Medium, with Palmitate (control); assay type: cell-based; settings: Homo sapiens, A2780; lipid reduced medium, 25 μM palmitate, 96 h, MTT; read-out: Proliferation A2780 with Palmitate pIC50 (converted)
Summary of the method: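 A2780 cells were seeded in RPMI1640 with 10% FCS, then switched next day to medium with 10% lipid-reduced serum. Compound was added with final 25 μM palmitate, 0.2% fatty-acid-free BSA and 0.2% DMSO, and incubated 96 h at 37 °C. Read-out was MTT absorbance at 544 nm; pIC50 = −log(IC50) from curve fit.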

T2 sequence (P49327 whole entry, the tested form may be a part): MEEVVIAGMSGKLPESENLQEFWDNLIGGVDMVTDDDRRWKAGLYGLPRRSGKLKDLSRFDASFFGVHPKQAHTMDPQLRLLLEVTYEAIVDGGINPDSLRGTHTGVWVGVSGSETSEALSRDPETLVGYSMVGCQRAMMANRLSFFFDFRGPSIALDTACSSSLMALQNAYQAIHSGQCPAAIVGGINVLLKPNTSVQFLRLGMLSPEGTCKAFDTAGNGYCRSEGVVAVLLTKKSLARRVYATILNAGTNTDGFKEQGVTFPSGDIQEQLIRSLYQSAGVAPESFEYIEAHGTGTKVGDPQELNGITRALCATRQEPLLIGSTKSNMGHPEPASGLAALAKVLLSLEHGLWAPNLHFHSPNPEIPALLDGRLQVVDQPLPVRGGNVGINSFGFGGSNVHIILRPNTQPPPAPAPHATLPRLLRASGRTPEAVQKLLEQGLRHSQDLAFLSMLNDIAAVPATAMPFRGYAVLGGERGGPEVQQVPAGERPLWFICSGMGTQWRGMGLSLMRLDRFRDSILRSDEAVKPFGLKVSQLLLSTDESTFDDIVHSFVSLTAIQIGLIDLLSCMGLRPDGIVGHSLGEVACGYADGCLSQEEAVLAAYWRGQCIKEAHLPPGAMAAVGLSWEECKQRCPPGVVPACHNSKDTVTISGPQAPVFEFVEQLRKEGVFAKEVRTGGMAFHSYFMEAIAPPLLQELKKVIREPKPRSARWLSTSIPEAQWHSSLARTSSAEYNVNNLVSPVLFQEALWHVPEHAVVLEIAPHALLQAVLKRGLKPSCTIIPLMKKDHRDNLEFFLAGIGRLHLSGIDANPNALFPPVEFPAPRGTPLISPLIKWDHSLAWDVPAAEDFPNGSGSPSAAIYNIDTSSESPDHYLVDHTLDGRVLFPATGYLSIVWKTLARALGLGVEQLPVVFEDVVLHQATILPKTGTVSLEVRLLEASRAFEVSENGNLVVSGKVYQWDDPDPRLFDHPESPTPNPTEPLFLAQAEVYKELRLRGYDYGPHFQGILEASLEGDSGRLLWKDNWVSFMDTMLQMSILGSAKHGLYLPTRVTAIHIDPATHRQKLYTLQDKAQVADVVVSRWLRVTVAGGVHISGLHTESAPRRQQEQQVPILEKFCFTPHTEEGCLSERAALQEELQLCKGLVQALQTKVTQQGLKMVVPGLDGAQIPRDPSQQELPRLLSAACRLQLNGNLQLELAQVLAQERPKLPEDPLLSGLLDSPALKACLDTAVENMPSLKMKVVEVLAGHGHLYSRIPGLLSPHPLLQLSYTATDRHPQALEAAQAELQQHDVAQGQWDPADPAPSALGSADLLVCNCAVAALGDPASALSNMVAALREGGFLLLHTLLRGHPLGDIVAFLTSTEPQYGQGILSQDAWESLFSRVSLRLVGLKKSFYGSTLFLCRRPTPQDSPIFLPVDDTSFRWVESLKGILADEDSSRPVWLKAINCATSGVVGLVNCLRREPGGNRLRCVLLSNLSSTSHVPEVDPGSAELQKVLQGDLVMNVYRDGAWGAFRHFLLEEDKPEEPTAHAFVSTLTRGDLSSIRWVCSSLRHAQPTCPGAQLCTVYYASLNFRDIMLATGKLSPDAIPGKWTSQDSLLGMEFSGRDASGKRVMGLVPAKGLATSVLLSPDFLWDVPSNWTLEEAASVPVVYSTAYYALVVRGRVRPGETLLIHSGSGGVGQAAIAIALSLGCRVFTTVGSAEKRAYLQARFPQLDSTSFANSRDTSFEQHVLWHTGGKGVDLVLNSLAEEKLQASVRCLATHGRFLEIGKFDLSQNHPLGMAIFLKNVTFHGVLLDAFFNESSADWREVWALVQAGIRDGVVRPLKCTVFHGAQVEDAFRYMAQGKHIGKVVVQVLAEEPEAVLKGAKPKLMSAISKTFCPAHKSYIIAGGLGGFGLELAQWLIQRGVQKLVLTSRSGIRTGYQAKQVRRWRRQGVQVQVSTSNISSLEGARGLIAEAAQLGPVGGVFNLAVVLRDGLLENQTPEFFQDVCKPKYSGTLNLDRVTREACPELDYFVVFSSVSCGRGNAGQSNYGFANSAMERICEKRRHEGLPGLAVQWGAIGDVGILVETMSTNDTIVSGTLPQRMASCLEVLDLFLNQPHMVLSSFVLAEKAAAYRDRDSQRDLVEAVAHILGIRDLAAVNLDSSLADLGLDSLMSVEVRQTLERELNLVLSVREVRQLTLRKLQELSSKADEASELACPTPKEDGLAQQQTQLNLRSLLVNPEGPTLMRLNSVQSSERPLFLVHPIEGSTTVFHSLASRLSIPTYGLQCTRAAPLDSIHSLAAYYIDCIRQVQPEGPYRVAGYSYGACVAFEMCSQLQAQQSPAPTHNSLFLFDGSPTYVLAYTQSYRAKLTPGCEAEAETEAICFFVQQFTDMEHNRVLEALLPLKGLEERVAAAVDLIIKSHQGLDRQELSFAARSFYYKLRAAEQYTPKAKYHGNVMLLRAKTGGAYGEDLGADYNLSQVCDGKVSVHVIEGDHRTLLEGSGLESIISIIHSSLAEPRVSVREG
T1 sequence (P49327 whole entry): as the sequence (P49327 whole entry, the tested form may be a part) above

Structure (SMILES)	IC50 [1] [nM]	inhibition at 10 µM [1] [%]	IC50 (A2780 ovarian cells [2]) [nM]	IC50 [3] [nM]	IC50 (A2780 ovarian cells [4]) [nM]
Cc1ccc(C(=O)N2CCC(c3ccc(-c4cnn(C)c4)cc3)CC2)cc1NC(=O)c1ccc(NC2CCC2)nc1 [Compound 134, 6-(cyclobutylamino)-N-(2-methyl-5-(4-(4-(1-methyl-1H-pyrazol-4-yl)phenyl)piperidine-1-carbonyl)phenyl)nicotinamide]	57.5	111	~38	52.5	> 10000
CCCCC(C)N1CCC(C(=O)Nc2cc(C(=O)N3CCC(c4ccc(-c5cnn(C)c5)cc4)CC3)ccc2C)C1 (stereo not shown) [Compound 197, 1-(hexan-2-yl)-N-(2-methyl-5-(4-(4-(1-methyl-1H-pyrazol-4-yl)phenyl)piperidine-1-carbonyl)phenyl)pyrrolidine-3-carboxamide]	110	98	288	309	> 10000
COc1ccc(C(=O)N2CCC(c3ccc(-c4cnn(C)c4)cc3)CC2)cc1NC(=O)c1ccc(Cl)nc1 [Compound 231, 6-chloro-N-(2-methoxy-5-(4-(4-(1-methyl-1H-pyrazol-4-yl)phenyl)piperidine-1-carbonyl)phenyl)nicotinamide]	33.9	114	115	107	> 10000
CCC(CC)C(=O)Nc1cc(C(=O)N2CC(c3ccc(-c4cnn(C)c4)cc3)C2)ccc1C [Compound 153, 2-ethyl-N-(2-methyl-5-(3-(4-(1-methyl-1H-pyrazol-4-yl)phenyl)azetidine-1-carbonyl)phenyl)butanamide]	30.2	102	38	61.7	4680
Cc1ccc(C(=O)N2CCC(c3ccc(-c4cnn(C)c4)cc3)CC2)cc1NC(=O)C1CCNCC1 [Compound 150, N-(2-methyl-5-(4-(4-(1-methyl-1H-pyrazol-4-yl)phenyl)piperidine-1-carbonyl)phenyl)piperidine-4-carboxamide]	43.7	110	479	155	> 10000
Cc1ccc(C(=O)N2CC[C@H](c3ccc(-n4ccnc4)cc3)[C@@H](C)C2)cc1NC(=O)c1ccc(Cl)nc1 (racemic) [Compound 54, (±)-N-(5-(4-((3R,4S)-4-(1H-imidazol-1-yl)phenyl)-3-methylpiperidine-1-carbonyl)-2-methylphenyl)-6-chloronicotinamide]	234	104	204	288	> 10000
Cc1ccc(C(=O)N2CCC(c3ccc4[nH]c(=O)sc4c3)CC2)cc1NC(=O)c1ccc(Cl)nc1 [Compound 48, 6-chloro-N-(2-methyl-5-(4-(2-oxo-2,3-dihydrobenzo[d]thiazol-6-yl)piperidine-1-carbonyl)phenyl)nicotinamide]	269	92	1410	457	> 10000
Cc1ccc(C(=O)N2CCC(c3ccc(-c4cnn(C)c4)cc3)CC2)cc1NC(=O)[C@@H]1CCCN1C [Compound 238, (S)-1-methyl-N-(2-methyl-5-(4-(4-(1-methyl-1H-pyrazol-4-yl)phenyl)piperidine-1-carbonyl)phenyl)pyrrolidine-2-carboxamide]	479	100	741	1020	> 10000
Cc1ccc(C(=O)N2CCC(c3ccc(-c4cnn(C)c4)cc3)CC2)cc1NC(=O)C1CCCO1 (stereo not shown) [Compound 151, N-(2-methyl-5-(4-(4-(1-methyl-1H-pyrazol-4-yl)phenyl)piperidine-1-carbonyl)phenyl)tetrahydrofuran-2-carboxamide]	148	101	1170	708	> 10000
COc1cccc(-c2ccc(C3CCN(C(=O)c4ccc(C)c(NC(=O)c5ccc(NC(C)C)nc5)c4)CC3)cc2)c1 [Compound 201, 6-(isopropylamino)-N-(5-(4-(3′-methoxy-[1,1′-biphenyl]-4-yl)piperidine-1-carbonyl)-2-methylphenyl)nicotinamide]	214	86	513	380	933
Cc1ccc(C(=O)N2CCC(c3ccc4c(c3)NC(=O)CC4)CC2)cc1NC(=O)c1ccc(NC(C)C)nc1 [Compound 35, 6-(isopropylamino)-N-(2-methyl-5-(4-(2-oxo-1,2,3,4-tetrahydroquinolin-7-yl)piperidine-1-carbonyl)phenyl)nicotinamide]	437	99	676	794	~8910
Cc1ccc(C(=O)N2CC[C@H](c3ccc(-c4ccnn4C)cc3)[C@H](C)C2)cc1NC(=O)c1ccc(Cl)nc1 (racemic) [Compound #111, (±)-6-chloro-N-(2-methyl-5-((3S,4S)-3-methyl-4-(4-(1-methyl-1H-pyrazol-5-yl)phenyl)piperidine-1-carbonyl)phenyl)nicotinamide]	513	96	1620	1780	4470
CC(C)Nc1ccc(C(=O)Nc2cc(C(=O)N3CC(c4ccc(-c5ccnc6ccccc56)cc4)C3)ccc2Cl)cn1 [Compound 63, N-(2-chloro-5-(3-(4-(quinolin-4-yl)phenyl)azetidine-1-carbonyl)phenyl)-6-(isopropylamino)nicotinamide]	27.5	100	53.7	24.5	3020
Cc1ccc(C(=O)N2CCC(c3ccc(-c4cnn(C)c4)cc3)CC2)cc1NC(=O)C1CN(CC(C)(C)C)C1 [Compound 190, N-(2-methyl-5-(4-(4-(1-methyl-1H-pyrazol-4-yl)phenyl)piperidine-1-carbonyl)phenyl)-1-neopentylazetidine-3-carboxamide]	74.1	102	257	251	> 10000
Cc1ccc(C(=O)N2CCC(c3ccc(-c4cnn(C)c4)cc3)CC2)cc1NC(=O)C1CCN(C)CC1 [Compound 169, 1-methyl-N-(2-methyl-5-(4-(4-(1-methyl-1H-pyrazol-4-yl)phenyl)piperidine-1-carbonyl)phenyl)piperidine-4-carboxamide]	70.8	106	77.6	191	> 10000
Cc1ccc(C(=O)N2CCC(c3ccc(-c4cn(C)nc4C)cc3)CC2)cc1NC(=O)c1ccc(NC(C)C)nc1 [Compound 245, N-(5-(4-(4-(1,3-dimethyl-1H-pyrazol-4-yl)phenyl)piperidine-1-carbonyl)-2-methylphenyl)-6-(isopropylamino)nicotinamide]	33.9	108	~31.6	75.9	> 10000
Cc1ccc(C(=O)N2CCC(c3ccc(-c4cnn(C)c4)nc3)CC2)cc1NC(=O)c1ccc(Cl)nc1 [Compound 270, 6-chloro-N-(2-methyl-5-(4-(6-(1-methyl-1H-pyrazol-4-yl)pyridin-3-yl)piperidine-1-carbonyl)phenyl)nicotinamide]	589	93	1480	2750	> 10000
Cc1ccc(C(=O)N2CCC(c3ccc(-c4cnoc4)cc3)CC2)cc1NC(=O)c1ccc(NC(C)C)nc1 [Compound 51, 6-(isopropylamino)-N-(5-(4-(4-(isoxazol-4-yl)phenyl)piperidine-1-carbonyl)-2-methylphenyl)nicotinamide]	14.8	110	~33.9	25.1	1700
Cc1ccc(C(=O)N2CCC(c3ccc(-c4cnn(C)c4)cc3)CC2)cc1NC(=O)c1ccc(C#N)cc1 [Compound 138, 4-cyano-N-(2-methyl-5-(4-(4-(1-methyl-1H-pyrazol-4-yl)phenyl)piperidine-1-carbonyl)phenyl)benzamide]	91.2	107	331	195	> 10000
Cc1ccc(C(=O)N2CCC(c3ccc(-n4ccnc4)cc3)C(C)(C)C2)cc1NC(=O)c1ccc(Cl)nc1 (stereo not shown) [Compound #6, N-(5-(4-(4-(1H-imidazol-1-yl)phenyl)-3,3-dimethylpiperidine-1-carbonyl)-2-methylphenyl)-6-chloronicotinamide]	61.7	104	234	89.1	> 10000
